Test results as given in the supplement of paper PMC11061612.

Columns and labels:
Assay in all cases: Bliss excess, mean over the matrix (fraction); higher = more synergy
[1] = tested on: JSC-1 (B-Cell Non-Hodgkin's Lymphoma)
Outline: (§1)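 Bliss excess equals the observed combination effect minus the expected value EA + EB − EA·EB, where EA and EB are the effects of each agent alone. Combination Emax is the second-highest inhibition within the matrix. Inhibition was scaled from CellTiter-Glo 2.0 luminescence, with 0 set by vehicle wells and 1 by blank wells, after 72 hours of two-drug dosing of cells plated in 1536-well plates.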

[2] = tested on: CAL-29 (Bladder Carcinoma)
Outline: as §1

[3] = tested on: NCI-H2066 (Squamous Cell Lung Carcinoma)
Outline: as §1

[4] = tested on: ARH-77 (Non-Cancerous)
Outline: as §1

[5] = tested on: SK-MG-1 (Low Grade Glioma)
Outline: as §1

[6] = tested on: PANC-10-05 (Pancreatic Carcinoma)
Outline: as §1

[7] = tested on: TT (Thyroid Gland Carcinoma)
Outline: as §1

[8] = tested on: IGR-37 (Melanoma)
Outline: as §1

[9] = tested on: LN-405 (Glioblastoma)
Outline: as §1

[10] = tested on: SK-MES-1 (Squamous Cell Lung Carcinoma)
Outline: as §1

[11] = tested on: 8-MG-BA (Glioblastoma)
Outline: as §1

[12] = tested on: HCC1954 (Breast Carcinoma)
Outline: as §1

[13] = tested on: GI-ME-N (Neuroblastoma)
Outline: as §1

[14] = tested on: A3-KAW (B-Cell Non-Hodgkin's Lymphoma)
Outline: as §1

[15] = tested on: TT2609-C02 (Thyroid Gland Carcinoma)
Outline: as §1

[16] = tested on: A498 (Kidney Carcinoma)
Outline: as §1

[17] = tested on: A549 (Lung Adenocarcinoma)
Outline: as §1

[18] = tested on: VCaP (Prostate Carcinoma)
Outline: as §1

[19] = tested on: NCI-H2591 (Mesothelioma)
Outline: as §1

[20] = tested on: NCI-H64 (Small Cell Lung Carcinoma)
Outline: as §1

SMILES	Bliss excess [1]	Bliss excess [2]	Bliss excess [3]	Bliss excess [4]	Bliss excess [5]	Bliss excess [6]	Bliss excess [7]	Bliss excess [8]	Bliss excess [9]	Bliss excess [10]	Bliss excess [11]	Bliss excess [12]	Bliss excess [13]	Bliss excess [14]	Bliss excess [15]	Bliss excess [16]	Bliss excess [17]	Bliss excess [18]	Bliss excess [19]	Bliss excess [20]
COc1nnc2ccc(N3CCC(c4ccc(OCCN5CCN(C)C(=O)[C@H]5C)cc4)CC3)nn12 [AZD5153] + Cn1cnc2c(F)c(Nc3ccc(Br)cc3Cl)c(C(=O)NOCCO)cc21 [Selumetinib] (first compound max 1 µM, 7x7, partner max 10 µM)	-0.0165	0.0393	-0.0123	-0.0251	-0.0443	-0.0736	-0.0018	0.0624	-0.0171	-0.0219	-0.007	-0.0118	-0.0636	0.0182	-0.0074	0.0016	-0.0703	-0.059	-0.0065	0.0021
Cc1c2c(nn1C)CSCc1cc(n(C)n1)CSc1cc(c3ccccc3c1)OCCCc1c(C(=O)O)n(C)c3c-2c(Cl)ccc13 [AZD5991] + C=CCn1c(=O)c2cnc(Nc3ccc(N4CCN(C)CC4)cc3)nc2n1-c1cccc(C(C)(C)O)n1 [AZD1775] (first compound max 1 µM, partner max 1 µM)	-0.0042	0.0878	-0.0231	-0.0418	0.0333	-0.0551	0.007	-0.0015	0.0077	-0.0183	-0.0123	0.0435	0.0646	0.0126	0.0087	0.0231	-0.0488	-0.011	0.0396	-0.0187
Cc1c2c(nn1C)CSCc1cc(n(C)n1)CSc1cc(c3ccccc3c1)OCCCc1c(C(=O)O)n(C)c3c-2c(Cl)ccc13 [AZD5991] + CC1(C)CCC(CN2CCN(c3ccc(C(=O)NS(=O)(=O)c4ccc(NCC5CCOCC5)c([N+](=O)[O-])c4)c(Oc4cnc5[nH]ccc5c4)c3)CC2)=C(c2ccc(Cl)cc2)C1 [Venetoclax] (first compound max 1 µM, 7x7, partner max 1 µM)	0.0155	0.0101	-0.0303	0.0087	-0.0221	-0.0506	0.0887	-0.0167	0.0082	-0.0302	0.048	0.0401	-0.0408	0.0191	-0.0069	-0.108	-0.0642	-0.0351	-0.0252	0.0308
Cc1c2c(nn1C)CSCc1cc(n(C)n1)CSc1cc(c3ccccc3c1)OCCCc1c(C(=O)O)n(C)c3c-2c(Cl)ccc13 [AZD5991] + CCN(CCO)CCCOc1ccc2c(Nc3cc(CC(=O)Nc4cccc(F)c4)[nH]n3)ncnc2c1 [AZD2811] (first compound max 1 µM, 7x7, partner max 1 µM)	0.123	0.072	0.0154	-0.0146	0.0619	-0.0242	-0.0735	0.0533	0.0122	0.0098	0.114	0.105	0.0116	0.0434	0.0119	0.0054	-0.0592	0.08	0.0208	0.144
Cc1c2c(nn1C)CSCc1cc(n(C)n1)CSc1cc(c3ccccc3c1)OCCCc1c(C(=O)O)n(C)c3c-2c(Cl)ccc13 [AZD5991] + CN(C)CCCOc1ccc(-c2ccc3ncc4c(c3c2)n(C2CCOCC2)c(=O)n4C)cn1 [AZD0156] (first compound max 1 µM, 7x7, partner max 1 µM)	-0.0081	0.0308	-0.0084	-0.0423	0.0058	-0.0048	-0.071	0.0148	-0.0026	-0.0029	0.0044	0.0247	-0.04	-0.0252	0.0199	-0.0274	-0.026	0.0034	0.0036	-0.0708
Cc1c2c(nn1C)CSCc1cc(n(C)n1)CSc1cc(c3ccccc3c1)OCCCc1c(C(=O)O)n(C)c3c-2c(Cl)ccc13 [AZD5991] + C[C@@H]1COCCN1C2=NC(=NC(=C2)C3(CC3)[S@](=N)(=O)C)C4=C5C=CNC5=NC=C4 [AZD6738] (first compound max 1 µM, 7x7, partner max 10 µM)	0.018	0.0409	0.0148	-0.014	0.0868	0.0415	-0.0066	0.124	0.0493	-0.0119	0.0326	0.0518	0.0481	0.0161	0.0043	0.107	0.0007	0.0348	0.023	0.0193
Cc1c2c(nn1C)CSCc1cc(n(C)n1)CSc1cc(c3ccccc3c1)OCCCc1c(C(=O)O)n(C)c3c-2c(Cl)ccc13 [AZD5991] + C[C@@H](Nc1cc(F)cc(F)c1)c1cc(C(=O)N(C)C)cc2c(=O)cc(N3CCOCC3)oc12 [AZD8186] (first compound max 1 µM, 7x7, partner max 3 µM)	-0.0289	0.0096	-0.0445	-0.0404	-0.0124	-0.0473	-0.0219	0.038	0.028	0.052	0.0956	0.031	-0.0631	-0.0084	-0.0192	-0.0252	0.01	-0.0086	-0.0164	-0.0067
Cc1c2c(nn1C)CSCc1cc(n(C)n1)CSc1cc(c3ccccc3c1)OCCCc1c(C(=O)O)n(C)c3c-2c(Cl)ccc13 [AZD5991] + Cc1cc2ncnn2cc1Nc1ncc2c(n1)n(C1CCOCC1)c(=O)n2C [AZD7648] (first compound max 1 µM, 7x7, partner max 10 µM)	-0.0499	0.014	-0.0141	-0.024	-0.0349	-0.0758	-0.0112	0.0039	-0.0439	-0.0471	0.0218	-0.0095	-0.0863	-0.0101	-0.038	-0.0249	-0.111	-0.0067	-0.0106	-0.0186
Cc1c2c(nn1C)CSCc1cc(n(C)n1)CSc1cc(c3ccccc3c1)OCCCc1c(C(=O)O)n(C)c3c-2c(Cl)ccc13 [AZD5991] + Cn1cnc2c(F)c(Nc3ccc(Br)cc3Cl)c(C(=O)NOCCO)cc21 [Selumetinib] (first compound max 1 µM, 7x7, partner max 3 µM)	0.027	0.0436	0.0459	-0.0069	0.0044	-0.0186	-0.0526	0.0044	0.003	0.0132	0.098	0.0333	-0.06	0.045	-0.0402	0.0133	-0.0344	-0.0213	-0.0127	-0.026
C[C@@H]1COCCN1c1cc(C2([S@](C)(=N)=O)CC2)nc(-c2ccnc3[nH]ccc23)n1 [AZD6738] + O=C(c1cc(Cc2n[nH]c(=O)c3ccccc23)ccc1F)N1CCN(C(=O)C2CC2)CC1 [Olaparib] (first compound max 10 µM, 7x7, partner max 10 µM)	-0.0254	-0.0405	-0.0682	-0.0297	0.0121	-0.0133	-0.0219	-0.0475	0.0005	-0.0324	0.0521	0.0028	-0.0252	-0.0085	0.0176	-0.0403	0.0273	-0.0107	0.0123	-0.0686
Cc1cc2ncnn2cc1Nc1ncc2c(n1)n(C1CCOCC1)c(=O)n2C [AZD7648] + C=CCn1c(=O)c2cnc(Nc3ccc(N4CCN(C)CC4)cc3)nc2n1-c1cccc(C(C)(C)O)n1 [AZD1775] (first compound max 10 µM, partner max 1 µM)	-0.0166	-0.0241	-0.105	-0.0575	0.009	-0.0429	-0.0215	-0.0007	-0.0402	0.0167	-0.0114	0.0065	0.0213	0.0521	-0.0218	0.0207	-0.0718	-0.0497	0.0043	-0.0585
Cc1cc2ncnn2cc1Nc1ncc2c(n1)n(C1CCOCC1)c(=O)n2C [AZD7648] + CCN(CCO)CCCOc1ccc2c(Nc3cc(CC(=O)Nc4cccc(F)c4)[nH]n3)ncnc2c1 [AZD2811] (first compound max 10 µM, 7x7, partner max 1 µM)	0.0813	0.0545	-0.0318	0.0348	0.0477	-0.0341	-0.0266	0.0315	-0.0206	-0.0011	0.0664	0.0561	0.0032	0.0762	0.0149	-0.0049	-0.0025	0.0023	0.0506	0.0392
Cc1cc2ncnn2cc1Nc1ncc2c(n1)n(C1CCOCC1)c(=O)n2C [AZD7648] + CN(C)CCCOc1ccc(-c2ccc3ncc4c(c3c2)n(C2CCOCC2)c(=O)n4C)cn1 [AZD0156] (first compound max 10 µM, 7x7, partner max 1 µM)	0.0412	-0.0282	-0.026	-0.049	0.0047	-0.0059	-0.0269	0.0285	-0.0215	0.0394	0.029	0.0111	0.0015	0.162	-0.0188	-0.0212	-0.0192	0.0154	-0.0089	-0.0367
Cc1cc2ncnn2cc1Nc1ncc2c(n1)n(C1CCOCC1)c(=O)n2C [AZD7648] + C[C@@H]1COCCN1C2=NC(=NC(=C2)C3(CC3)[S@](=N)(=O)C)C4=C5C=CNC5=NC=C4 [AZD6738] (first compound max 10 µM, 7x7, partner max 10 µM)	0.0038	-0.012	0.025	-0.0463	0.0011	0.0487	0.0666	-0.0228	-0.0881	-0.0084	0.0602	0.0568	0.0346	-0.034	-0.0004	0.0313	-0.0282	0.0437	0.04	-0.0003
Cc1cc2ncnn2cc1Nc1ncc2c(n1)n(C1CCOCC1)c(=O)n2C [AZD7648] + O=C(c1cc(Cc2n[nH]c(=O)c3ccccc23)ccc1F)N1CCN(C(=O)C2CC2)CC1 [Olaparib] (first compound max 10 µM, 7x7, partner max 10 µM)	-0.0148	-0.0288	-0.0624	0.0393	-0.0455	-0.0426	-0.0702	-0.057	-0.0421	-0.0323	-0.0184	-0.045	-0.0382	-0.0107	-0.0276	-0.0268	0.0613	-0.0336	-0.0403	-0.0384
